Laboratory results published in the Biogen ADME set (Fang et al. 2023).
In brackets after ≈: the same amount, converted by molar mass.

Conditions: for aqueous solubility: pH 6.8

| SMILES | MDR1-MDCK efflux ratio | intrinsic clearance, human liver microsomes | intrinsic clearance, rat liver microsomes | aqueous solubility | fraction unbound, human plasma | fraction unbound, rat plasma |
| --- | --- | --- | --- | --- | --- | --- |
| Cc1cc(Nc2ccc3c(c2)oc(=O)n3C)nc(C2CC2)n1 | 0.717 | 23.9 mL/min/kg | 159 mL/min/kg | 5.34 µg/mL (≈ 18 µM) | – | – |
| OC1(c2cccnc2F)CCN(Cc2ccc(-c3ccc(F)cc3)o2)CC1 | 0.57 | 18.9 mL/min/kg | 170 mL/min/kg | – | – | – |
| CN(CC(=O)Nc1cccc(F)c1)C(=O)c1cccc(C#N)c1 | 6.11 | 26.4 mL/min/kg | 131 mL/min/kg | 56.2 µg/mL (≈ 181 µM) | – | – |
| CCCCN(CC)c1nc(C)nc2c1c(C)c(C)n2-c1c(C)cc(C)cc1C | – | 198 mL/min/kg | 1380 mL/min/kg | – | – | – |
| Cc1ccnc(NC(=O)CN2CCCC2=O)c1 | 2.12 | ≤ 4.74 mL/min/kg | ≤ 10.7 mL/min/kg | 55.1 µg/mL (≈ 236 µM) | – | – |
| CCN1CCc2nc(NC(=O)Cc3ccc(Cl)cc3)sc2C1 | 1.02 | 11.6 mL/min/kg | ≤ 10.7 mL/min/kg | 46.6 µg/mL (≈ 139 µM) | – | – |
| CCn1nccc1-c1cc(C)nc(N2CCCC2)n1 | 0.641 | 115 mL/min/kg | 398 mL/min/kg | – | – | – |
| Cn1cc(C(C)(C)NC(=O)C#Cc2ccc3c(c2)OCO3)cn1 | 3.89 | ≤ 4.74 mL/min/kg | 51.1 mL/min/kg | – | – | – |
| Cc1ccc(F)cc1NCc1csc(-c2cnn(C)c2)n1 | – | 40.2 mL/min/kg | 402 mL/min/kg | – | – | – |
| CN1CCN(c2cccc(C#N)n2)CC1 | – | ≤ 4.74 mL/min/kg | 617 mL/min/kg | – | – | – |
| Cc1[nH]ncc1-c1nn2c(Cc3ccccc3Cl)nnc2s1 | – | – | – | 4.18 µg/mL (≈ 12.6 µM) | – | – |
| CN(CCc1ccccc1)C(=O)CC#N | 0.666 | ≤ 4.74 mL/min/kg | ≤ 10.7 mL/min/kg | 32.5 µg/mL (≈ 161 µM) | – | – |
| CCN(Cc1ccccc1)C(=O)c1ccc(O)cc1O | 0.83 | ≤ 4.74 mL/min/kg | 726 mL/min/kg | 46.7 µg/mL (≈ 172 µM) | – | – |
| CN(Cc1ccc(OC(F)(F)F)cc1)Cc1cn(C)nn1 | 0.666 | 15 mL/min/kg | 290 mL/min/kg | – | – | – |
| NC[C@H]1CC[C@@H](C(=O)Nc2ccc3[nH]ncc3c2)O1 | 1.14 | 17.7 mL/min/kg | – | – | 0.959 | – |
| CN(Cc1ccc(N)nc1)c1nc2cc(F)ccc2o1 | 33.5 | ≤ 4.74 mL/min/kg | 58.1 mL/min/kg | – | – | – |
| O=C(Nc1cccc(-c2nncn2C2CC2)c1)c1cc(-n2cnc(C3CC3)c2)ccn1 | 46.4 | 8.13 mL/min/kg | 37.4 mL/min/kg | 45 µg/mL (≈ 109 µM) | 0.0183 | 0.0409 |
| CN(CCC#N)Cc1cc(C#N)ccc1F | – | ≤ 4.74 mL/min/kg | ≤ 10.7 mL/min/kg | 31.4 µg/mL (≈ 145 µM) | – | – |
| Cc1cccc2cc(C(=O)NCCCn3nnc4ccccc43)n(C)c12 | 0.886 | 325 mL/min/kg | 1410 mL/min/kg | – | – | – |
| Cc1cnc(Cl)nc1-c1ccc(N(Cc2ccc(CNC(=O)C(F)F)cc2)C(=O)c2ccc(O)cc2O)cc1 | 54.7 | 41.3 mL/min/kg | 84.6 mL/min/kg | 27.6 µg/mL (≈ 49.8 µM) | – | – |
| N#Cc1cnn(-c2ccc(F)cc2)c1N | – | – | – | 29.2 µg/mL (≈ 144 µM) | – | – |

| SMILES | MDR1-MDCK efflux ratio | intrinsic clearance, human liver microsomes | intrinsic clearance, rat liver microsomes | aqueous solubility | fraction unbound, human plasma | fraction unbound, rat plasma |
| --- | --- | --- | --- | --- | --- | --- |
| CC(=O)N1CCN([C@H]2CCN(C(=O)c3cc4cc(Cl)ccc4o3)CC[C@@H]2O)CC1 | 37.8 | 8.04 mL/min/kg | 96.9 mL/min/kg | – | – | – |
| Cc1ccc(NC(=O)CN(C)C2CCCCC2)cc1S(=O)(=O)N(C)C | 1.45 | 432 mL/min/kg | 3870 mL/min/kg | – | – | – |
| Cc1sc(NC(=O)CN2CCOC(C3CCCO3)C2)c(C)c1C (centres undefined) | 1 | 12.8 mL/min/kg | 185 mL/min/kg | 60.9 µg/mL (≈ 180 µM) | – | – |
| Cc1cc(C(=O)N2CCN(C(=O)C3CCC3)CC2)c(O)cn1 | 29.1 | ≤ 4.74 mL/min/kg | ≤ 10.7 mL/min/kg | – | – | – |
| Nc1ccc(CC(=O)Nc2ccccc2F)cc1 | 0.66 | ≤ 4.74 mL/min/kg | ≤ 10.7 mL/min/kg | 54 µg/mL (≈ 221 µM) | – | – |
| CN(Cc1nc2c(s1)CCCC2)c1cnccn1 | 0.576 | 131 mL/min/kg | 1280 mL/min/kg | – | – | – |
| COc1ncccc1CNc1c(C#N)cnc2c(C)cc(F)cc12 | – | 156 mL/min/kg | 1250 mL/min/kg | – | – | – |
| O=C(NCC(=O)N1CCN(C2CC2)CC1)c1ccccc1 | 0.659 | ≤ 4.74 mL/min/kg | ≤ 10.7 mL/min/kg | 62.3 µg/mL (≈ 217 µM) | – | – |
| O=c1c2ccccc2nc2n1CCN(Cc1ccc(F)cc1)CC2 | 0.471 | 37.1 mL/min/kg | 565 mL/min/kg | – | – | – |
| CN(CCc1ccccn1)c1cnc2ccccc2n1 | 0.64 | 86.3 mL/min/kg | 862 mL/min/kg | 44.5 µg/mL (≈ 169 µM) | – | – |
| CC(C)(C)C[C@@H]1COCc2nc(OCc3ccccn3)cc(=O)n21 | – | – | – | 62.1 µg/mL (≈ 189 µM) | – | – |
| CCc1cc(NCc2cccc(OCCOC)c2)ncn1 | 0.827 | 9.28 mL/min/kg | 148 mL/min/kg | 49.1 µg/mL (≈ 171 µM) | – | – |
| CCc1cc2c(=O)[nH]c(-c3ccccn3)nc2s1 | – | – | – | 49 µg/mL (≈ 190 µM) | – | – |
| CN(c1ccccc1)S(=O)(=O)c1csc(C(=O)Nc2ccc(C(=O)O)cc2)c1 | – | – | – | 80.3 µg/mL (≈ 193 µM) | – | – |
| CN(C)Cc1ccc(-c2ccccc2C(=O)O)cc1 | – | ≤ 4.74 mL/min/kg | ≤ 10.7 mL/min/kg | 30.5 µg/mL (≈ 119 µM) | – | – |
| CCCOc1ccccc1C(=O)N1CC(Oc2cccc(OC)c2)C1 | 0.72 | 92.8 mL/min/kg | 1360 mL/min/kg | 42.3 µg/mL (≈ 124 µM) | – | – |
| CC(C)CC(NC(=O)C(O)C(N)Cc1ccccc1)C(=O)O (centres undefined) | 0.744 | – | – | – | – | 0.347 |
| CC(=O)Nc1cccc(OCC(=O)N2CCCCC2)c1 | 11.9 | ≤ 4.74 mL/min/kg | 126 mL/min/kg | 42.4 µg/mL (≈ 153 µM) | – | – |
| CC(C)NC(=O)c1cc(-c2ccccc2)n(-c2ccccn2)n1 | 0.762 | 8.11 mL/min/kg | 80.5 mL/min/kg | 54.1 µg/mL (≈ 176 µM) | – | – |
| CC1(C)CC(=O)c2c(C(F)(F)F)nn(-c3ccc(C(N)=O)c(N[C@H]4CC[C@@H](O)CC4)c3)c2C1 | 109 | 47.7 mL/min/kg | 108 mL/min/kg | – | – | – |
| O=C(CCn1ccc2ccccc21)N1CCC(n2c(=O)[nH]c3ccccc32)CC1 | – | 269 mL/min/kg | 5450 mL/min/kg | – | – | – |

| SMILES | MDR1-MDCK efflux ratio | intrinsic clearance, human liver microsomes | intrinsic clearance, rat liver microsomes | aqueous solubility | fraction unbound, human plasma | fraction unbound, rat plasma |
| --- | --- | --- | --- | --- | --- | --- |
| N#CCN1CCC(CNC(=O)c2c(F)ccc(F)c2F)CC1 | 1.76 | 4.81 mL/min/kg | 15.7 mL/min/kg | – | – | – |
| COc1ccnc(N2CCCN(Cc3ccccc3C)CC2)n1 | – | 756 mL/min/kg | 2350 mL/min/kg | – | – | – |
| CC(C)[C@H](Nc1ncc(Cl)cn1)C(=O)N1CCCC1 | 1.08 | 15.4 mL/min/kg | 181 mL/min/kg | 36.2 µg/mL (≈ 128 µM) | – | – |
| CC(C)C(=O)N1CCC(Nc2ncnc3ccsc23)CC1 | 6.55 | ≤ 4.74 mL/min/kg | 19.2 mL/min/kg | 48 µg/mL (≈ 158 µM) | – | – |
| Brc1nnc(N2CCC(OC3CCCC3)CC2)s1 | 0.582 | 77.3 mL/min/kg | 3110 mL/min/kg | – | – | – |
| O=C(CCCNC(=O)NC1CCCCC1)Nc1cc(C2CC2)n[nH]1 | – | – | – | 43.9 µg/mL (≈ 132 µM) | – | – |
| Cc1cc(C)cc(C(=O)NCCCNc2ncccn2)c1 | – | – | – | 52.5 µg/mL (≈ 185 µM) | – | – |
| CCCCn1nc(-c2ccc(C)o2)nc1CNC | 1.32 | 14.3 mL/min/kg | 239 mL/min/kg | 29.3 µg/mL (≈ 118 µM) | – | – |
| CNC(=O)c1ccc(-c2nnc(-c3cccc(C)c3)o2)cc1 | – | – | – | 0.21 µg/mL (≈ 0.716 µM) | – | – |
| CN(CC(=O)NC1(C#N)CCCCC1)c1cccc(C#N)c1 | 10.4 | 85.8 mL/min/kg | 701 mL/min/kg | 20.3 µg/mL (≈ 68.4 µM) | – | – |
| CC(C)(C)Nc1cc(NCC2CCOCC2)c2ncc(-c3ccc(C(=O)NC4CC4)cc3)n2n1 | 7.52 | – | – | 0.4 µg/mL (≈ 0.865 µM) | – | – |
| Cc1cccnc1CN1CCC(O)(c2ccccc2)CC1 | 0.958 | 4.93 mL/min/kg | 684 mL/min/kg | – | – | – |
| Cn1ccc2c(NC(=O)N3CCCN(C(=O)Oc4ccccc4)CC3)cccc21 | – | 41.8 mL/min/kg | 777 mL/min/kg | 71.9 µg/mL (≈ 183 µM) | – | – |
| Cc1ccc(Oc2ccc(N)cc2)nn1 | 0.725 | ≤ 4.74 mL/min/kg | ≤ 10.7 mL/min/kg | – | – | – |
| Cc1cccc(OCC(=O)Nc2ccn(C)n2)c1 | – | 21.1 mL/min/kg | 479 mL/min/kg | 43.5 µg/mL (≈ 177 µM) | – | – |
| CN(CC(=O)NC1(C#N)CCCC1)c1ccccc1 | 0.924 | 20.3 mL/min/kg | 498 mL/min/kg | 46.5 µg/mL (≈ 181 µM) | – | – |
| CCc1cc(CNC(=O)NC2CCN(CC3CCCCC3)CC2)on1 | 26.6 | ≤ 4.74 mL/min/kg | 80.4 mL/min/kg | – | – | – |
| COc1ccc(-c2[nH]c3ncccc3c2CN(C)CCOc2ccccc2OC)cc1 | 3.88 | – | – | 0.3 µg/mL (≈ 0.719 µM) | – | – |
| Cc1cc(Nc2ncccn2)cc(C2CCCN(CC(=O)Nc3ccc(F)cc3)C2)n1 (centres undefined) | 8.32 | 64.4 mL/min/kg | 456 mL/min/kg | – | – | – |
| Cc1cc(C#N)cc(N2CCc3c(ncn3CCc3ccccc3)C2)n1 | 1.22 | 975 mL/min/kg | 3430 mL/min/kg | – | – | – |
